Here are results for eight molecules from US20050169928A1, “Antibodies which bind to proteins involved in cytoadhesion of plasmodlum falciparum ring-stage-infected erythrocytes” (INSTITUT PASTEUR, priority 2000, published 2005).

A value given as a limit tells only on which side of the number the result lay.

What all share (assay type): cell-based, P. falciparum
Assay [1] relates to ring-stage PA^CSA IE cytoadhesion to SBEC 1D. Kind of assay: Ring-stage IE cytoadhesion inhibition assay on SBEC 1D (Example 1). The conditions noted are these: for inhibitory activity on ring-stage IE cytoadhesion to SBEC 1D (in words): ring-stage PA^CSA IE 8 hours post-invasion, glycosaminoglycans, enzymes on target cells, thrombospondin; for sensitivity of ring-stage IE^CSA cytoadhesion to inhibitor: 0.1 mg/ml CSA, or target cells pretreated with 1 U/ml chondroitinase ABC, until the 16th hour after invasion; for time after invasion of maximal inhibition of IE^CSA binding: highly synchronized PA^CSA IE tested every 4 hours throughout the cycle. On the procedure: Gelatin-enriched preparations of mature-stage IE were resuspended at a concentration of 5×10^6 IE/ml in cytoadhesion medium at pH 6.8. Cytoadhesion microassays were then performed on 12-well IFA slides (Institut Pasteur, Paris) as previously described (Pouvelle, B. Fusai, T. Lepolard, C. & Gysin, J. biological and biochemical characteristics of cytoadhesion of Plasmodium falciparum-infected erythrocytes to chondroitin-4-sulfate. Infect. Immun. 66, 4950-4956 (1998)).
Ring-stage cytoadhesion assays were performed with endothelial cells as described above and with placental cryosections as previously described (Gysin, J., Pouvelle, B., Le Tonqueze, M., Edelman, L. & Boffa, M. C., Chondroitin sulfate of thrombomodulin is an adhesion receptor for Plasmodium falciparum-infected erythrocyics. Mol. Biochem. Parasitol. 88, 267-271 (1997)), with 1 to 10% parasitaemia (a 1×10^7 IE/ml suspension).
For cytoadhesion inhibition assays, the IE were incubated with SBEC in the presence of 2.5 μg/ml thrombospondin, 0.1 mg/ml soluble CSA, dermatan sulphate (CSB), chondroitin-6-sulphate (CSC), keratin sulphate (Ker), hyaluronic acid (HA), heparin (Hep) (Fluka, France), or with SBEC previously incubated for 1 hour at 37° C. with 1 U/ml chondrotinase ABC (Fluka, France), 1 to 10 U/ml heparinase III (Hepase III) (Sigma, France) or 5 μg/ml anti-CD36 FA6-152 Mab (gift from Dr. Edelman). Inhibition assays were also carried out in the presence of sera obtained from Senegalese and Cameroonian patients living in areas of endemic malaria. The sera were obtained from primigravida and multigravida women, an adult and a child, absorbed onto O^+ human blood and SBEC ID, and tested at a dilution of 1/20. The results were compared to those for cytoadhesion in the presence of a 1/20 dilution of a pool of control sera from volunteers who had never contacted malaria.
The protease sensitivity of ring-stage IE cytoadhesion was analyzed using 5 μl of packed PA^CSA IE (8 hours post-invasion). IE were incubated with 10 or 100 μg/ml of trypsin TPCK (Signa) or 100 μg/ml of α-chymotrypsin TLCK (Sigma) for 30 minutes at 37° C. The digestion was stopped by adding culture medium containing 10% human plasma. The cells were then washed in cytoadhesion medium and allowed to cytoadhere to SBEC 1D, as previously described, using untreated PA^CSA as a control.

Assay [2] has as its system adherent rIE^CSA/nE and mature IE^CSA on SBEC 1D. Description: Cytoadhesion inhibition and desequestration under flow conditions at 0.05 Pa. The conditions noted are these: B4 200 μg/ml, CSA 10 μg/ml final.
Protocol: In short: Four serial 7 μm normal human placenta cryosections (each of approximately 4 mm×4 mm) of the maternal compartment were mounted on a microscopic slide 75-25 mm and fixed with 0.5% para-formaldehyde in PBS at pH 7.2, for 2 hours at room temperature. After washing several times with PBS and then with RPMI 1640 pH 6.8, the slide is mounted on a perfusing chamber (Immunetics, France). An equipart mixture of 8±4 hours old synchronized rIE^CSA (including nE from the same culture) and 34±4 hours old IE^CSA at a final hematocrit of 25% in RPMI 1640, pH 7.2 were then flow through the chamber for 10 min at 0.05 Pascals. After rinsing for 10 min with the medium at the same shear stress, 100 ug/ml of a 50 kDa CSA (Fluka, France) dissolved in RPMI or 200 ug/ml of mAbs was flushed through the chamber for 10 min at the same shear stress. Slides from 3 experiments were recovered and stained by Giemsa. Mature IE, rIE and nE were counted and the result expressed as arithmetic mean percentage of bound erythrocytes±SD/20 fields of 100× Oil magnification as described elsewhere (Gysin, J., B. Pouvelle, N. Fievet, A. Scherf, and C. Lepolard. 1999. Ex vivo desequestration of Plasmodium falciparum-infected erythrocytes from human placenta by chondroitin sulfate A. Infect Immun. 67:6596-602).
Assay [3] has as its system cytoadhesion of IE on endothelial cells or placenta cryosections. Description: Stage-specific cytoadhesion inhibition on endothelial cells or placenta cryosections (discussion). The protocol:
Cytoadhesion inhibition and disruption assays were performed on SBEC 1D cells grown to confluence on 12-dot IFA slides as described elsewhere (Pouvelle, B., P. Meyer, C. Robert, L. Bardel and J. Gysin. 1997. Chondroitin-4-sulfate impairs in vitro and in vivo cytoadherence of Plasmodium falciparum infected erythrocytes. Mol Med. 3:508-18) by assessing the laboratory CSA-binding strains FCR3, FCBR, BXII, SUK, HB, IBR and the placenta isolates no. 24, 42,42DJ, 193 and 939. In short: 20 μl of a mixture of synchronized rIE with nE or mIE from corresponding cultures at a parasitaemia of 4-15% for a total 10^7 IE/ml RPMI 1640, pH6.8 were layered per dot of confluent SBEC 1D cells. For the inhibition assay, 20 μl of each mAb at a concentration of 0.2 to 200 μg/ml was deposited simultaneously with rIE or IE and corresponding nE/dot for 2 hours at +37° C. For the disruption assay the same mAbs were added after a one hour preincubation of IEs and nEs with endothelial cells for an additional 1 hour. Unbound erythrocytes were removed by vigorously washing the slides in RPMI 1640, pH6.8. Bound IE and nE were fixed with 0.25% glutaraldehyde in PBS pH7.2. The inhibition and disruption of cytoadhesion was expressed as bound IE and nE/mm^2 of confluent endothelial cells in the presence of mAbs, in comparison to unrelated mouse IgG of the same IgG isotype (Sigma, USA). […]

For the molecule “Thrombospondin: mature-stage IE adhesion receptor protein tested at 2.5 μg/ml”, the “inhibitory activity on ring-stage IE cytoadhesion to SBEC 1D (in words)” value (“inhibitory activity” below) in assay [1] is on record as “no effect”.

Consider chondroitin-sulphate A [CSA], for which, in assay [1], the “sensitivity of ring-stage IE^CSA cytoadhesion to inhibitor” value is recorded as “insensitive” and the “time after invasion of maximal inhibition of IE^CSA binding” value is 24 h. Also, the “desequestration of adherent mature IE^CSA by flushing” value in assay [2] is reported as “removed only the mature forms”. In assay [3] (mature blood stages), the “inhibition of cytoadhesion of mature blood stages” value is given as over 90%. Besides, the “inhibition of cytoadhesion of young trophozoites” value in assay [3] (young trophozoites (16-20 hours), RSP-2 and PfEMP1 both expressed) was at most 25%.

On to chondroitinase ABC, for which, in assay [1], the “sensitivity of ring-stage IE^CSA cytoadhesion to inhibitor” value is “insensitive”, the “time after invasion of maximal inhibition of IE^CSA binding” value is 24 h and the “inhibitory activity” value is recorded as “no significant inhibitory activity”.

For dermatan-sulphate, in assay [1], the “inhibitory activity” value is “not specific”.

Turning to heparin, the “inhibition of ring-stage cytoadhesion” value in assay [1] (Heparin 100 μg/ml, heparinase treatment of target cells, SBEC 1D) is on record as “about 50%”.

As to hyaluronate lyase, in assay [1], the “inhibitory activity” value is given as “low level of inhibitory activity”.

Regarding hyaluronic acid, the “inhibitory activity” value in assay [1] is reported as “no activity”.

B1: trypsin: protease used to treat ring-stage IE (protein, UniProt P00760 24-246, looked up)
Serine protease 1: IVGGYTCGANTVPYQVSLNSGYHFCGGSLINSQWVVSAAHCYKSGIQVRLGEDNINVVEGNEQFISASKSIVHPSYNSNTLNNDIMLIKLKSAASLNSRVASISLPTSCASAGTQCLISGWGNTKSSGTSYPDVLKCLKAPILSDSSCKSAYPGQITSNMFCAGYLEGGKDSCQGDSGGPVVCSGKLQGIVSWGSGCAQKNKPGVYTKVCNYVSWIKQTIASN
modifications: TPCK-treated
notes: protease used to treat ring-stage IE
On to B1, for which the “inhibition of ring-stage IE adhesion after protease treatment of IE” value in assay [1] (protease concentration 100 μg/ml) is on record as “substantially inhibited”.
